For ten compounds, IC50 results are on record in BindingDB's records for patent US20240368194 (Shanghai Leadingtac Pharmaceutical, 2024).

This test deals with T1, Interleukin-1 receptor-associated kinase 4 (Homo sapiens, UniProt Q9NWZ3).
T1 sequence (Q9NWZ3 whole entry): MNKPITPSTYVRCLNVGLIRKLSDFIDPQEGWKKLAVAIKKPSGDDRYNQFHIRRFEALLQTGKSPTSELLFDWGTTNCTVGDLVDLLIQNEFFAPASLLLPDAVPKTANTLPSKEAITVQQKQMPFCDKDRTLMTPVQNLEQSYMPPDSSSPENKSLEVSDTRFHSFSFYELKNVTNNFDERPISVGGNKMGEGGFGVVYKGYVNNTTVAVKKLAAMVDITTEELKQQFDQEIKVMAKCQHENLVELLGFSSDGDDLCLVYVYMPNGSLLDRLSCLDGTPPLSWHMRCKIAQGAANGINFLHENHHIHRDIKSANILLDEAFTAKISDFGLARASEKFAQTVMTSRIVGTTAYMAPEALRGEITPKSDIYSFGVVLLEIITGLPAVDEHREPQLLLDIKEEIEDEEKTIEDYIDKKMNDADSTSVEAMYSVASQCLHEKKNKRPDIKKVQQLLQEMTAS
The experiment in a line: 1RAK4 Kinase Activity Assay. As to the method:
Then 2.5 nM 1RAK4 kinase (Carna), 1 μM biotinylated polypeptide substrate (Cisbio) and 7 μM adenosine triphosphate (Sigma-Aldrich) were sequentially added, and the mixtures were incubated at 37° C. for 120 min. Subsequently, an anti-phosphoserine/threonine antibody (Cisbio) conjugated with a europium element compound and conjugated modified XL665 streptavidin (Cisbio) were added to the reaction systems to stop the reactions. After 1 h of incubation at room temperature, the fluorescence intensity of each well was measured at the excitation wavelength of 337 nm and the emission wavelengths of 620 nm and 665 nm with a microplate reader EnVision (PerkinElmer) in the HTRF mode, and Ratio values were calculated using the formula Ratio=(665 nm/620 nm)×[…]. The inhibition rate of the compound at each concentration was calculated by comparing the fluorescence intensity ratio with that of the control group.

pIC50: −log10 of the molar value.

For the compound `O=C1CCN(c2cc(C(=O)N3CCC4(CCN(C[C@H]5CC[C@H](n6cc(NC(=O)c7cnn8ccc(N9C[C@H]%10C[C@@H]9CO%10)nc78)c(Cl)n6)CC5)CC4)CC3)ccc2Cl)C(=O)N1` [US20240368194, Example 5], the negative logarithm of the IC50 (pIC50) was 6.44. The same measure for `Cc1nn([C@H]2CC[C@H](CN3CCC4(CC3)CCN(C(=O)c3ccc(Cl)c(N5CCC(=O)NC5=O)c3)CC4)CC2)cc1NC(=O)c1cnn2ccc(N3C[C@H]4C[C@@H]3CO4)nc12` [US20240368194, Example 7]: 6.50. Under `CN(CCC1CCN(C(=O)c2ccc(Cl)c(N3CCC(=O)NC3=O)c2)CC1)C[C@H]1CC[C@H](n2cc(NC(=O)c3cnn4ccc(N5C[C@H]6C[C@@H]5CO6)nc34)c(C(F)F)n2)CC1` [US20240368194, Example 11] stands 7.73. The compound `O=C1CCC(c2ccc(C(=O)N3CCC4(CCC(CN5CCC(n6cc(NC(=O)c7cnn8ccc(N9CCOCC9)nc78)c(C(F)F)n6)CC5)CC4)CC3)cc2)C(=O)N1` (stereo not given) [US20240368194, Example 26] had a pIC50 of 7.84. Turning to `CN(CCC1CCN(C(=O)c2ccc(OC(F)(F)F)c(N3CCC(=O)NC3=O)c2)CC1)C[C@H]1CC[C@H](n2cc(NC(=O)c3cnn4ccc(N5C[C@H]6C[C@@H]5CO6)nc34)c(C(F)F)n2)CC1` [US20240368194, Example 33], the negative logarithm of the IC50 (pIC50) is 7.62.

Consider `O=C1CCN(c2cc(C#CCOC3CCN(C[C@H]4CC[C@H](n5cc(NC(=O)c6cnn7ccc(N8CCOCC8)nc67)c(C(F)F)n5)CC4)CC3)ccc2Cl)C(=O)N1` [US20240368194, Example 38], for which the pIC50 was 7.70. The same measure for `CN1CCN(c2ccn3ncc(C(=O)Nc4cn([C@H]5CC[C@H](CN(C)CCC6CCN(C(=O)c7ccc(F)c(N8CCC(=O)NC8=O)c7)CC6)CC5)nc4C(F)F)c3n2)CC1` [US20240368194, Example 41]: 7.59; for `CN(CC[C@H]1CC[C@H](n2cc(NC(=O)c3cnn4ccc(N5C[C@H]6C[C@@H]5CO6)nc34)c(C(F)F)n2)CC1)CC1CCN(C(=O)c2ccc(Cl)c(N3CCC(=O)NC3=O)c2)CC1` [US20240368194, Example 46]: 6.56; for `COc1ccc(C(=O)N2CCC3(CCC(N(C)C[C@H]4CC[C@H](n5cc(NC(=O)c6cnn7ccc(N8CCOCC8)nc67)c(C(F)F)n5)CC4)CC3)CC2)cc1N1CCC(=O)NC1=O` [US20240368194, Example 59]: 8.06. Under `CN(CCC1CCN(C(=O)c2ccc(Cl)c(N3CCC(=O)NC3=O)c2)CC1)C[C@]1(O)CC[C@@H](n2cc(NC(=O)c3cnn4ccc(N5C[C@H]6C[C@@H]5CO6)nc34)c(C(F)F)n2)CC1` [US20240368194, Example 65] stands 7.28.
